From PMC11637483, “Dissecting caspase-2-mediated cell death: from intrinsic PIDDosome activation to chemical modulation” (Protein & Cell, 2024)

Columns and labels:
[1] = tested on: EL4 cells; test: Cell death and caspase-2 processing in EL4 cells; assay type: cell-based, mouse; settings: EL4, 8 h
Text: (§1) We further examined whether HUHS015-derived compounds could activate endogenous caspase-2 in human cells. […] Complementing the CASP2^−/− Jurkat cells with exogenous caspase-2 restored HUHS015-36-induced apoptosis, in which caspase-2 was expectedly processed (Fig. 5A and 5B). We also profiled caspase-2 expression in a panel of 10 mouse tumor cell lines and observed highly variable expression levels (Fig. 5C). […] In B16-F10 (melanoma), LLC1 (Lewis lung carcinoma), MB49 (bladder carcinoma), KPC (pancreatic ductal adenocarcinoma), and 4T1 (mammary carcinoma) cells, caspase-2 was expressed at much lower levels (Fig. 5C). In contrast, EMT6 (mammary carcinoma), EL4 (T lymphoblast), and Hepa1-6 (hepatoma) feature robust caspase-2 expression, much higher than in Jurkat cells (Fig. 5C).
(§2) Figure 5. HUHS015-36 activates endogenous caspase-2 to induce apoptosis in Jurkat cells but not mouse cells. (A and B) HUHS015-36 activates endogenous caspase-2 and induces apoptosis in human Jurkat cells. […] Lysates of 10 mouse cancer cell lines were analyzed by immunoblotting using indicated antibodies. […] ATP cell viability (A and D) is expressed as mean ± s.d. from three technical replicates. […]
(§3) Cell viability was measured by the ATP assay using the CellTiter-Glo® Luminescent Cell Viability Assay kit (Promega).

[2] = tested on: Jurkat cells; test: Cell death and caspase-2 processing in Jurkat cells (endogenous caspase-2); assay type: cell-based, human; settings: 8 h
Text: as §1
as §2, with “mouse” for “mouse cells. (A and B) HUHS015-36 activates endogenous caspase-2 and induces apoptosis in human Jurkat”
as §3
To stimulate caspase-2 activation, PIDD1-CC controlled by a Tet-On inducible system was introduced into indicated cells. […] Cell lysates were analyzed by standard immunoblotting.

[3] = tested on: Hepa1-6 cells; test: Cell death and caspase-2 processing in Hepa1-6 cells; assay type: cell-based, mouse; settings: Hepa1-6, 8 h
Text: as §1, §2, §3

[4] = tested on: caspase-2 interdomain linker mutants in HeLa TKO cells; test: Cell death and caspase-2 activation in HeLa TKO cells expressing caspase-2 linker mutants; assay type: cell-based
Text: (§4) Figure 4. HUHS015 activates human caspase-2 directly through specific targeting of the interdomain linker of caspase-2. (A) The direct binding between HUHS015-36 and MBP-fused human caspase-2 pro-domain was detected by microscale thermophoresis (MST). MST profiles for raw binding signals and affinity (KD) measurement are shown. The calculated dissociation constant (KD) is expressed as means ± s.d. from two determinations. (B) Sequence alignment of the pro-domain (residues 1–169) of human and mouse caspase-2. CARD domain annotation is shown on top of the sequences. Identical residues are in red background and conserved ones are in red. Numbers of starting residues are indicated on the left. Different residues in the interdomain linker (residues 122–169) were highlighted with green color. (C) HUHS015 activates human but not mouse caspase-2. HeLa TKO cells rescued with human or mouse caspase-2 expression were treated with HUHS015 for the indicated time. ATP-based cell viability and immunoblotting detecting caspase-2 processing are shown. […] ATP-based cell viability in panels (C–E) is expressed as mean ± s.d. from three technical replicates. […] TEXT PRINTED IN THE PICTURE: (A) HUHS015-36: MBP-CASP2(32–165) vs. HUHS015-36: KD (μmol/L): 22.05 ± 6.151; MBP vs. HUHS015-36: KD (μmol/L): Not detected […]

[5] = tested on: mouse caspase-2-expressing HeLa cells; test: Cell death and caspase-2 processing in HeLa TKO cells expressing mouse caspase-2; assay type: cell-based; settings: high concentrations of HUHS015
Text: as §4, with “time.” for “time. ATP-based cell viability and immunoblotting detecting caspase-2 processing are shown.”
as §3

| SMILES | caspase-2 processing and cell death [1] | caspase-2 processing and cell death ([2]; CASP2 knockout Jurkat cells) | caspase-2 processing and cell death ([2]; WT Jurkat cells) | caspase-2 processing and cell death [3] | caspase-2 activation and cell death ([4]; human caspase-2 with L150 and Y151 replaced by mouse P150 and H151, 5 h) | caspase-2 activation and apoptosis ([4]; mouse caspase-2 with P150 and H151 replaced by L150 and Y151, 5 h) | apoptosis / caspase-2 processing [5] |
| --- | --- | --- | --- | --- | --- | --- | --- |
| Cc1cccc2nc(-n3nc4c(c3O)CCCC4)[nH]c12 [HUHS015-36] | no caspase-2 processing and cell death were detected | completely diminished | induced evident caspase-2 processing and cell death | no caspase-2 processing and cell death were detected | – | – | – |
| Cc1ccc2nc(-n3nc(C)c(Cc4ccccc4)c3O)[nH]c2c1 [HUHS015] | – | – | – | – | abolished | capable of being activated | no apoptosis |
